Here are results for two molecules from paper PMC9693971, “Fast Screening of Protein Tyrosine Phosphatase 1B Inhibitor from Salvia miltiorrhiza Bge by Cell Display-Based Ligand Fishing” (Molecules, 2022).

Assay [1] deals with T1, Protein tyrosine phosphatase 1B (PTP1B) (Homo sapiens, UniProt P18031).
T1 construct: gene PTPN1
T1 sequence (P18031 1-435): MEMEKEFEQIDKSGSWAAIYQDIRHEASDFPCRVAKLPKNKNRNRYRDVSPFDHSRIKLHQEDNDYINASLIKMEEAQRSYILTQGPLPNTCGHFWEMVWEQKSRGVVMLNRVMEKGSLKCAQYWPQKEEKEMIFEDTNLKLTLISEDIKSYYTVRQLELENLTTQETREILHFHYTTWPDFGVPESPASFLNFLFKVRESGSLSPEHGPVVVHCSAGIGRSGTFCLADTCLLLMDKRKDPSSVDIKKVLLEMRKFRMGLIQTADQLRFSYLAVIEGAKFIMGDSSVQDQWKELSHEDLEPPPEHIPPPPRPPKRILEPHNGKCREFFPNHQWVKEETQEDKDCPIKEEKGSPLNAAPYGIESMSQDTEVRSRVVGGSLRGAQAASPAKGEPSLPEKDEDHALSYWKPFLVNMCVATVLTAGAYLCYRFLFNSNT
The assay can be described thus: ligand fishing with E. coli surface-displayed PTP1B, HPLC readout, with control cells; not fished by MNPs-PTP1B. Type of assay: cell-based.

The target in assay [2] is T1, Protein tyrosine phosphatase 1B (PTP1B). In words: pNPP phosphatase inhibition assay with Lineweaver-Burk kinetics (Ki […], Kis […]); also fished out by PTP1B displayed on E. coli. The class given is biochemical.

The term IC50 denotes the concentration that gives 50% inhibition. Read a low IC50 as higher potency.

Consider `C[C@@H]1O[C@@H](OC[C@H]2O[C@@H](Oc3c(-c4ccc(O)c(O)c4)oc4cc(O)cc(O)c4c3=O)[C@H](O)[C@@H](O)[C@@H]2O)[C@H](O)[C@H](O)[C@H]1O` [II, rutin], for which the “ligand fishing with E. coli surface-displayed PTP1B, HPLC readout, with control” value in assay [1] is recorded as “only EC-PTP1B extracted the positive compound rutin, indicating that EC-PTP1B was efficient for fishing the enzyme ligand”.
The molecule `O=C(/C=C/c1ccc(O)c2c1[C@H](C(=O)O[C@H](Cc1ccc(O)c(O)c1)C(=O)O)[C@@H](c1ccc(O)c(O)c1)O2)O[C@H](Cc1ccc(O)c(O)c1)C(=O)O` [salvianolic acid B] gave an IC50 in assay [2] of 23.3 µM.
